# How the values were obtained:
# [1] = tested on: A431 squamous cell carcinoma xenografts; assay: PET imaging of tracer uptake in A431 tumoured mice; assay type: in vivo, Balb/c Nude mice; conditions: intravenous, PET at 90 minutes post-tracer injection
# Experimental: (§1) In vivo imaging studies were performed on a Phillips Allegro™ small animal imaging system in mice implanted with A431 squamous cell carcinoma and HT-29 colon carcinoma xenografts on the left leg of Balb/c Nude mice. Approximately 400 μCi of each of D and L ^18FPM in 100 μl saline were injected intravenously and PET imaging performed at 90 minutes post-tracer injection. A comparison with FDG (fluorodeoxyglucose) uptake was also performed.
# [2] = tested on: HT-29 colon carcinoma xenografts; assay: PET imaging of tracer uptake in HT29 tumoured mice; assay type: in vivo, Balb/c Nude mice; conditions: intravenous, PET at 90 minutes post-tracer injection
# Experimental: as §1
# [3] = Radiochemical purity and stability in aqueous formulations (HPLC); assay type: physicochemical
# Experimental: The stability of [^18F]-L-FPHCys and [^18F]-D-FPHCys formulated in each of the following solutions: • 1) 5% EtOH/95% phosphate buffer, pH 6, 0.15 M (HLPC solvent) • 2) saline • 3) Dulbecco's phosphate buffered saline, pH 7 • 4) Phosphate buffer, pH 7. were analysed by HPLC using a Gemini 150×4.6 mm, 5 μm, eluting with 100% Phosphate Buffer, pH 11.5, 0.05 M at 1 mL/min, λ=226 nm.
# [4] = tested on: MCF-7 (breast adenocarcinoma) tumour cells; assay: Cell uptake study, MCF-7; assay type: cell-based, human; conditions: for uptake, rank among the cell lines: MCF-7 breast tumour cell line, 37° C., 2-240 min; for time for which uptake increased before staying at the same level: MCF-7 cell line
# Experimental: (§2) The human A375 (malignant melanoma), A431 (epidermoid carcinoma), HT29 (colorectal adenocarcinoma), MCF-7 (breast adenocarcinoma), MDA-MB-231 (breast adenocarcinoma), PC-3 (prostate adenocarcinoma) tumour cells were grown in RPMI-1640 medium supplemented with 10% fetal bovine serum (FBS) and 2 mM L-glutamine. The human H460 (large cell lung carcinoma) cell line was grown in RPMI-1640 supplemented with 10% FBS, 1 mM L-glutamine and 1 mM sodium pyruvate. The MiaPaCa2 human pancreatic carcinoma cell line was grown in Dulbecco's Modified Eagle medium supplemented with 10% FBS, 2.5% horse serum, 1 mM L-glutamine and 1 mM sodium pyruvate. The human U87MG glioblastoma cell line was cultured in Minimum Essential Medium supplemented with 10% FBS, 2 mM L-glutamine and 1 mM sodium pyruvate. Cells were maintained in 175 cm^2 flasks in a 5% CO2, 37° C. humidified incubator. Cells were passaged routinely every 7 days and the media changed twice weekly.
# (§3) One day prior to the experiments, cell cultures were trypsinised with a solution of 0.05% trypsin in PBS without Ca^2+ and Mg^2+ and containing 0.02% EDTA. Cells were seeded in 24-well culture dishes in complete medium and left to attach overnight. For MCF-7 cells, 3×10^5 cells were seeded, for all other cell lines, 2.5×10^5 cells were seeded.
# (§4) On the day of the study, the cells were counted and the viability assessed in triplicate for each cell line. Before the incubation with radiolabelled FPM, cells were washed once with PBS containing Ca^2+ and Mg^2+ to remove all traces of the culture medium. The radiolabelled FPM was formulated in PBS containing Ca^2+ and Mg^2+. Aliquots of 500 μL (˜10 μCi) of freshly prepared FPM were added and the cells were incubated in triplicate at 37° C. for 2, 15, 30, 60, 120, 180 and 240 min. After stopping the tracer uptake with 1 mL of ice-cold PBS, cells were solubilised with 500 μL of 0.2N NaOH and the activity was measured with a gamma counter. The results were expressed as percent of applied dose per 1×10^5 cells.
# [5] = tested on: HT29 (colorectal adenocarcinoma) tumour cells; assay: Cell uptake study, HT29; assay type: cell-based, human; conditions: HT29 colon cell line
# Experimental: as §2, with “weekly. […]” for “weekly.”
# (§5) On the day of the study, the cells were counted and the viability assessed in triplicate for each cell line. […] After stopping the tracer uptake with 1 mL of ice-cold PBS, cells were solubilised with 500 μL of 0.2N NaOH and the activity was measured with a gamma counter. The results were expressed as percent of applied dose per 1×10^5 cells.
# [6] = tested on: MiaPaCa2 human pancreatic carcinoma cell line; assay: Cell uptake study, MiaPaCa2; assay type: cell-based; conditions: MiaPaCa2 tumour cell line
# Experimental: as §2, with “weekly. […]” for “weekly.”
# as §5
# [7] = tested on: various types of tumour cells; assay: Cell uptake study, panel of tumour cell lines; assay type: cell-based, human; conditions: for uptake into tumour cells: particularly MCF-7, U87MG, MiaPaCa2 and A375 cell lines
# Experimental: as §2, §3, §4
# [8] = tested on: H460 cells; assay: Competitive inhibition study of tracer uptake, H460; assay type: cell-based, human; conditions: MeAIB 12.5 mmol/L aliquot, 30 min, 37° C.
# Experimental: as §2, with “weekly. […]” for “weekly.”
# (§6) On the day of the study, the cells were counted and the viability assessed in triplicate for each cell line. […] After stopping the tracer uptake with 1 mL of ice-cold PBS, cells were solubilised with 500 μL of 0.2N NaOH and the activity was measured with a gamma counter. The results were expressed as percent of applied dose per 1×10^5 cells. The percentage of uptake in the treatment groups, relative to the control group was determined.
# [9] = tested on: sodium-independent L type transport system in tumour cell lines; assay: Competitive inhibition study of tracer uptake, all cell lines; assay type: cell-based, human; conditions: for tracer uptake in the presence of BCH: all cell lines, BCH 12.5 mmol/L aliquot, 30 min, 37° C.; for transport mechanism of cell uptake: from inhibition by BCH and MeAIB
# Experimental: as §2, §3
# Inhibitor studies were carried out to investigate the transport mechanism involved in the uptake of FPM in tumour cells. The following amino acid transport inhibitors were used; 2-amino-bicyclo[2.2.1]-heptane-2-carboxylic acid (BCH) and N-methyl-α-aminoisobutyric acid (MeAIB) for the sodium-independent L type transport system and the A type amino acid transport system respectively.
# On the day of the study, the cells were counted and the viability assessed in triplicate for each cell line. Before the incubation with radiolabelled FPM, cells were washed once with PBS containing Ca^2+ and Mg^2+ to remove all traces of the culture medium. Aliquots of 400 μL of inhibitor (12.5 mmol/L in PBS with Ca^2+ and Mg^2+) or PBS (for controls) were added to cells prior to the addition of radiolabelled FPM. Aliquots of 100 μL (about 10 μCi) of freshly prepared FPM were added and the cells were incubated in triplicate at 37° C. for 30 min. After stopping the tracer uptake with 1 mL of ice-cold PBS, cells were solubilised with 500 μL of 0.2N NaOH and the activity was measured with a gamma counter. The results were expressed as percent of applied dose per 1×10^5 cells. The percentage of uptake in the treatment groups, relative to the control group was determined.
# [10] = cited from earlier work
# [11] = tested on: MiaPaCa2 cells; assay: Competitive inhibition study of tracer uptake, MiaPaCa2; assay type: cell-based, human; conditions: MeAIB 12.5 mmol/L aliquot, 30 min, 37° C.
# Experimental: as §2, with “weekly. […]” for “weekly.”
# as §6
# [12] = tested on: HT29 cells; assay: Competitive inhibition study of tracer uptake, HT29; assay type: cell-based, human; conditions: MeAIB 12.5 mmol/L aliquot, 30 min, 37° C.
# Experimental: as §2, with “weekly. […]” for “weekly.”
# as §6
Molecule,percent injected dose (% ID) in tumour [1] [%],tumour to background ratio [1],percent injected dose (% ID) in tumour [2] [%],tumour to background ratio [2],"uptake, rank among the cell lines [4]",time for which uptake increased before staying at the same level [4] [min],"uptake, rank among the cell lines [5]",time of peak uptake [6],uptake into tumour cells [7],"tracer uptake in the presence of MeAIB, % of control uptake [8] [%]",tracer uptake in the presence of BCH [9],transport mechanism of cell uptake [9],further results
S-(3-[^18F]fluoropropyl)-D-homocysteine [[^18F]-D-FPHCys],1.96,7.86,0.75,2.10,highest,120,lowest uptake,30 min,high uptake,76,significantly inhibited,predominantly taken up by cells via the sodium-independent L type transport system,"% ROI of product peak, F18 chromatogram (radiochemical purity) ([3]; 5% EtOH/95% phosphate buffer, pH 6, 0.15 M (HPLC solvent), t=0): 99.74%; % ROI of product peak, F18 chromatogram (radiochemical purity) ([3]; 5% EtOH/95% phosphate buffer, pH 6, 0.15 M (HPLC solvent), t=4 h): 99.06%; % ROI of product peak, F18 chromatogram (radiochemical purity) ([3]; Dulbecco's phosphate buffered saline, pH 7, t=0): 98.97%; % ROI of product peak, F18 chromatogram (radiochemical purity) ([3]; Dulbecco's phosphate buffered saline, pH 7, t=4 h): 96.20%; % ROI of product peak, F18 chromatogram (radiochemical purity) ([3]; PBS (phosphate buffer, pH 7), t=0): 98.44%; % ROI of product peak, F18 chromatogram (radiochemical purity) ([3]; PBS (phosphate buffer, pH 7), t=4 h): 96.51%; % ROI of product peak, F18 chromatogram (radiochemical purity) ([3]; saline, t=0): 99.30%; % ROI of product peak, F18 chromatogram (radiochemical purity) ([3]; saline, t=4 h): 95.23%"
"N[C@@H](CCSCCC[18F])C(=O)O [[^18F]FPHCys, S-(3-[^18F]fluoropropyl)homocysteine]",–,–,–,–,–,–,–,–,–,–,–,–,stability in an aqueous environment compared with the S-ethyl homologue ([3]; aqueous environment): substantially more stable
"N[C@@H](CCSCC[18F])C(=O)O [[^18F]FEHCys, S-(2-[^18F]fluoroethyl)-L-homocysteine]",–,–,–,–,–,–,–,–,–,–,–,–,stability in aqueous systems [10]: considerable instability
"N[C@@H](CCSCCC[18F])C(=O)O [[^18F]-L-FPHCys, S-(3-[^18F]fluoropropyl)-L-homocysteine]",2.12,5.39,2.13,2.45,highest,120,lowest uptake,30,high uptake,70,significantly inhibited,predominantly taken up by cells via the sodium-independent L type transport system,"uptake compared with the other enantiomer ([7]; all cell lines): higher; tracer uptake in the presence of MeAIB, % of control uptake [11]: 79%; tracer uptake in the presence of MeAIB, % of control uptake [12]: 84%"
"OC[C@H]1OC(O)[C@H]([18F])[C@@H](O)[C@@H]1O (stereo partly drawn) [FDG, [^18F]Fluoro-2-deoxy-D-glucose, reference compound]",5.84,3.33,2.37,2.11,–,–,–,–,–,–,–,–,–

# — patent US20120093726A1, “Radiolabeled Fluorine Derivatives of Methionine” (priority 2009, published 2012)
